No end group written: not given here.
B1: ephrin-A5: ephrin ligand; monovalent interaction with EphA3, literature KD (protein, UniProt P52803 21-203, looked up)
Ephrin-A5: QDPGSKAVADRYAVYWNSSNPRFQRGDYHIDVCINDYLDVFCPHYEDSVPEDKTERYVLYMVNFDGYSACDHTSKGFKRWECNRPHSPNGPLKFSEKFQLFTPFSLGFEFRPGREYFYISSAIPDNGRRSCLKLKVFVRPTNSCMKTIGVHDRVFDVNDKVENSLEPADDTVHESAEPSRGEN

What was measured:
EphB3 = biological target: T1, EphB3 (Homo sapiens, UniProt P54753); assay: Phage clone binding to immobilized EphB3 ectodomain Fc (phage ELISA); settings: phage clone displaying the peptide
T1 construct: Histidine-tagged EphB ectodomain Fc fusion proteins were incubated overnight
T1 sequence (P54753 34-559 limits assumed): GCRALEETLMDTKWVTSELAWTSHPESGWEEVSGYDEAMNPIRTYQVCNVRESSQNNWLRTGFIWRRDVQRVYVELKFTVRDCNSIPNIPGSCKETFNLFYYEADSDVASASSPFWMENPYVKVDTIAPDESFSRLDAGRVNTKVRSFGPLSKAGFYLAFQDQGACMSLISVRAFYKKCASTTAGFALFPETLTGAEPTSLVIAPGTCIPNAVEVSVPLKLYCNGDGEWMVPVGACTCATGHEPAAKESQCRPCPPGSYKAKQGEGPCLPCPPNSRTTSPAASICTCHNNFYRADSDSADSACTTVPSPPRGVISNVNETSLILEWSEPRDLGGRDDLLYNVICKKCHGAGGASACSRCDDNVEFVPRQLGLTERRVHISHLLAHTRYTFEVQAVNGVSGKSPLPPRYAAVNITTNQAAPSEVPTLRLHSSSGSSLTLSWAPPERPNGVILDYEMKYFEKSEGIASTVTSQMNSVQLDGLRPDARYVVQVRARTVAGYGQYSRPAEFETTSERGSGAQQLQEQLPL
Protocol: To identify EphB receptor-binding peptides, an M13 phage library (R&D Systems, Minneapolis, Minn.) displaying random 12 amino acid-long peptides was panned on the ectodomains of EphB1, EphB2, or EphB4 fused to human Fc and immobilized on nickel-coated wells through a carboxy-terminal hexahistidine tag (FIG. 1). Phage binding to Ni-NTA wells coated with 1 μg/ml Eph receptor Fe fusion proteins was quantified using an anti-phage antibody conjugated to horseradish peroxidase (M13 phage detection kit, Amersham Biosciences) with 2,2-azino-bis(3-ethylbenzothiazoline-6-sulfonic acid) as a substrate. The background that was subtracted from the measurements was determined without EphB4 Fc. Histidine-tagged EphB ectodomain Fc fusion proteins were incubated overnight at 4° C. in nickel-nitrilotriacetic acid (Ni-NTA)-coated ELISA wells at concentrations of 10 μg/ml in Tris-buffered saline (TBS) (150 mM NaCl, 50 mM Tris-HCl, pH 7.5), except for EphB2 and EphB4 rounds 3.2 and 4, which were with 1 μg/ml. […] Phage recovered after the first round of panning (1*) were not quantified to ensure that rare clones would be recovered.
The binding selectivity of the phage clones for the different mammalian EphB receptors was also determined (Table 1). […]

EphB6 = biological target: T2, EphB6 (Homo sapiens, UniProt O15197); assay: Phage clone binding to immobilized EphB6 ectodomain Fc (phage ELISA); settings: phage clone displaying the peptide
T2 construct: Histidine-tagged EphB ectodomain Fc fusion proteins were incubated overnight
T2 sequence (O15197 32-594 limits assumed): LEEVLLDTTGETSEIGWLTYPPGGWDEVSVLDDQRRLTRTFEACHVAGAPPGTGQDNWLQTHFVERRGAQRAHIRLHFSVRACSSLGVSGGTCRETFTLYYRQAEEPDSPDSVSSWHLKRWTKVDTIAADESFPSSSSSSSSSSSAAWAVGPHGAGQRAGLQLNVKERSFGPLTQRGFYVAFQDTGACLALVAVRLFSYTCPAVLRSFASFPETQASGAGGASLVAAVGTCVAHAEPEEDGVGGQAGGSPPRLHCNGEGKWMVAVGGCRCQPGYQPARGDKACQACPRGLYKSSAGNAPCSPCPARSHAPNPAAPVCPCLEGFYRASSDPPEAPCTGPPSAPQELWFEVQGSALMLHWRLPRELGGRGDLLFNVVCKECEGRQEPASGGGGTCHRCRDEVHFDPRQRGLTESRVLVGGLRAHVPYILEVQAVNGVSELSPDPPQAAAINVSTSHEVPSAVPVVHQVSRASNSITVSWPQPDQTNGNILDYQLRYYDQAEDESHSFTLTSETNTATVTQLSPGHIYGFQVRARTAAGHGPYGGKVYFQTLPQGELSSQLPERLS
Protocol: Phage binding to Ni-NTA wells coated with 1 μg/ml Eph receptor Fe fusion proteins was quantified using an anti-phage antibody conjugated to horseradish peroxidase (M13 phage detection kit, Amersham Biosciences) with 2,2-azino-bis(3-ethylbenzothiazoline-6-sulfonic acid) as a substrate. The background that was subtracted from the measurements was determined without EphB4 Fc. […] In round 1 of panning, 2×10^11 plaque forming units (PFUs) of the phage library in 100 μl binding buffer were incubated for 1 hour at room temperature in the EphB receptor-coated wells.

EphA3 = biological target: T3, EphA3 (Homo sapiens, UniProt P29320); settings: read-out: KD for monovalent EphA3-ephrin-A5 interaction; cited from earlier work
T3 sequence (P29320 21-983): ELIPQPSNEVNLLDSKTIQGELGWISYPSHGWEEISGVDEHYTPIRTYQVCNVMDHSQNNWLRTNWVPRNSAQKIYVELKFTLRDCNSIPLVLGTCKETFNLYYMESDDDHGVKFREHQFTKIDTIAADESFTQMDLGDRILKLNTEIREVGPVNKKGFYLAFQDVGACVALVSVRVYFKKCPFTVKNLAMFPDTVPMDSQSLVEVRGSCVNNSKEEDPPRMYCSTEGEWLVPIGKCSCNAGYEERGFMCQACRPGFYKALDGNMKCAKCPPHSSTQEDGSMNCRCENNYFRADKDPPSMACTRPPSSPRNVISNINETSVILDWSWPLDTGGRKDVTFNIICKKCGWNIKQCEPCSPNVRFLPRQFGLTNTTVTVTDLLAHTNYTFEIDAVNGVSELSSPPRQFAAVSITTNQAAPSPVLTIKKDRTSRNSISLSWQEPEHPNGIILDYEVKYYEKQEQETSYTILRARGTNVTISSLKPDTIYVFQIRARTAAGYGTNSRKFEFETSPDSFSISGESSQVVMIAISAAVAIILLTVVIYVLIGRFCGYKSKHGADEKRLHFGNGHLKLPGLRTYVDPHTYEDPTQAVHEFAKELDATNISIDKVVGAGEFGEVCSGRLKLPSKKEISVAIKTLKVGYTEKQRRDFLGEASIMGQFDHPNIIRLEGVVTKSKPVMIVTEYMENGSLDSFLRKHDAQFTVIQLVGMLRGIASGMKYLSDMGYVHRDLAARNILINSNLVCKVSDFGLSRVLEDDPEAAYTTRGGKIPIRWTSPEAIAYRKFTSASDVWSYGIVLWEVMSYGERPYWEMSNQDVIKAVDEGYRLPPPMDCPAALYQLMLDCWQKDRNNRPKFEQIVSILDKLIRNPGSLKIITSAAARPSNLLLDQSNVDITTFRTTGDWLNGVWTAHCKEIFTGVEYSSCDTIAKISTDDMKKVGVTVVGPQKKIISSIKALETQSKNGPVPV

Row | Molecule | EphB Receptor Specificity (% Binding) B3 (EphB3) [%] | EphB Receptor Specificity (% Binding) B6 (EphB6) [%] | Kd (EphA3) [nM]
1 | EWLSPNLAPSVR [compound 1] | 1 | 0 | –
2 | B1 | – | – | 10 to 12
